pKi: −log10 of the molar value. Counter-ions that a name gives are not always drawn.

adenosine A2a receptor, sequence (P29274 whole entry): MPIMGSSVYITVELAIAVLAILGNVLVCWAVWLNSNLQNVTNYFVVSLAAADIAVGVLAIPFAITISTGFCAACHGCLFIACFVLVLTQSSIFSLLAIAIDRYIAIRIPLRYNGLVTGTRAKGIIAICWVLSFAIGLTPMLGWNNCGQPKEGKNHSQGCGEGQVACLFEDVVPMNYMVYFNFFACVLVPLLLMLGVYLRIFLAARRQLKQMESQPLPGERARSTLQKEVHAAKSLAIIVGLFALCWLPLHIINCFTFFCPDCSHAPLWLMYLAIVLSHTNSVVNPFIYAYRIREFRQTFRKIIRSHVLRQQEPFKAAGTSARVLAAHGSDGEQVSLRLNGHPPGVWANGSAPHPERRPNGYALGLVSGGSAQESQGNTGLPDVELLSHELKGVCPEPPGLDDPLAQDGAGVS

The assay concerns the target adenosine A2a receptor (Homo sapiens, UniProt P29274). Kind of assay: adenosine A2a receptor agonist test (method of Murphree et al / Hannon et al). The assay is classed as binding. As to the method: Compounds of formula I and their pharmaceutically acceptable salts are useful as pharmaceuticals. In particular, they activate the adenosine A2a receptor activation, i.e. they act as A2a receptor agonists.
For example, the compounds of Examples 7, 8, 17, 19, and 38 have Ki values of 0.003, 0.002, 0.011, 0.008, and 0.007 μM respectively.
`CCC(=O)N[C@H]1C[C@@H](n2cnc3c(NCC(c4ccc(OC)c(OC)c4)c4ccc(OC)c(OC)c4)nc(N4CC[C@@H](NC(=O)N[C@@H]5CCNC5)C4)nc32)[C@H](O)[C@@H]1O` [Example 19, N-((1S,2R,3S,4R)-4-{6-[2,2-bis-(3,4-dimethoxy-phenyl)-ethylamino]-2-[(R)-3-((R)-3-pyrrolidin-3-ylureido)-pyrrolidin-1-yl]-purin-9-yl}-2,3-dihydroxy-cyclopentyl)-propionamide trifluoroacetate] gave a pKi of 8.10.

The compound `CCC(=O)N[C@H]1C[C@@H](n2cnc3c(NCCc4ccccc4-c4ccccc4)nc(N4CC[C@@H](NC(=O)N[C@@H]5CCNC5)C4)nc32)[C@H](O)[C@@H]1O` [Example 17, N-((1S,2R,3S,4R)-4-{6-(2-biphenyl-2-yl-ethylamino)-2-[(R)-3-((R)-3-pyrrolidin-3-ylureido)-pyrrolidin-1-yl]-purin-9-yl}-2,3-dihydroxy-cyclopentyl)-propionamide trifluoroacetate] showed a pKi of 7.96.

In the case of `CCC(=O)N[C@H]1C[C@@H](n2cnc3c(NCC(c4ccc(OC)cc4)c4ccc(OC)cc4)nc(N4CC[C@@H](NC(=O)N[C@@H]5CCNC5)C4)nc32)[C@H](O)[C@@H]1O` [Example 7, N-((1S,2R,3S,4R)-4-{6-[2,2-Bis-(4-methoxy-phenyl)-ethylamino]-2-[(R)-3-((R)-3-pyrrolidin-3-ylureido)-pyrrolidin-1-yl]-purin-9-yl}-2,3-dihydroxy-cyclopentyl)-propionamide trifluoroacetate], the pKi was 8.52. Compound `CCC(=O)N[C@H]1C[C@@H](n2cnc3c(NCC(c4ccccc4)c4ccc(F)cc4)nc(NC4CCC(N)CC4)nc32)[C@H](O)[C@@H]1O` (stereo partly drawn) [Example 38, N-((1S,2R,3S,4R)-4-{2-(4-Amino-cyclohexylamino)-6-[2-(4-fluoro-phenyl)-2-phenyl-ethylamino]-purin-9-yl}-2,3-dihydroxy-cyclopentyl)-propionamide trifluoroacetate] had a pKi of 8.15. The same measure for `CCC(=O)N[C@H]1C[C@@H](n2cnc3c(NCC(c4ccccc4)c4ccc(F)cc4)nc(N4CC[C@@H](NC(=O)N[C@@H]5CCNC5)C4)nc32)[C@H](O)[C@@H]1O` (stereo partly drawn) [Example 8, N-((1S,2R,3S,4R)-4-{6-[2-(4-fluoro-phenyl)-2-phenyl-ethylamino]-2-[(R)-3-((R)-3-pyrrolidin-3-ylureido)-pyrrolidin-1-yl]-purin-9-yl}-2,3-dihydroxy-cyclopentyl)-propionamide trifluoroacetate]: 8.70.

One may read the pKi as −log10 of the Ki, conventionally taken in molar units. A higher pKi goes with a low Ki.
